Measured values from paper PMC6409085, “Three odorant-binding proteins are involved in the behavioral response of Sogatella furcifera to rice plant volatiles” (PeerJ, 2019).
Several values for one entry are separate records, joined by “and”; a condition that tells them apart may be missing. Equal values may be shown once.

Assays:
Experiment in all cases: biochemical
Type in all cases: binding
SfurOBP1 = SfurOBP1 (Sogatella furcifera, UniProt V5T8N5); conditions: for Fluorescence competitive binding assay, fluorescence intensity: OBP1, three replicate columns
Chain of SfurOBP1 (V5T8N5 entry or part of it): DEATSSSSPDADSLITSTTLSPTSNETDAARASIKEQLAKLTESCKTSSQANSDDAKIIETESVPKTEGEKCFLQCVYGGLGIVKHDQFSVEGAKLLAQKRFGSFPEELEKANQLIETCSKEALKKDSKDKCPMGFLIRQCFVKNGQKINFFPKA
Protocol: (§1) Thirty-six rice odorants ([He et al., 2014]; [Wang et al., 2017]) and 1-N-phenyl-naphthylamine (1-NPN) were purchased from Sigma-Aldrich (St Louis, MO, USA). These odorants and 1-NPN were dissolved in high-performance liquid chromatography (HPLC) purify grade methanol for 1.0 mM as work solution.
(§2) Fluorescence competitive binding assays were performed on Tecan Spark 10M (Tecan Group Ltd., Männedorf, Switzerland) with the F96 Black ELIAS Plate (Sangon) ([Khuhro et al., 2017]; [Liu et al., 2017]). The solutions were excited at 337 nm and emission spectra were recorded between 390 and 490 nm. First, to test the binding constants of 1-NPN to the SfurOBPs, a 2.0 µM solution of protein in 50 mM Tris-HCl (pH = 7.4) was titrated with 1 mM 1-NPN to achieve virous concentrations. Next, the competitive binding of each odorant was measured using the 1-NPN as fluorescent reporter and odorant as competitor. The concentrations of protein and 1-NPN were both 2.0 µM, the odorant added after protein and 1-NPN added into the well of ELIAS Plate for 2 min. The final concentrations of each competitor were 2, 4, 6, 8, 10, 12, 14, 16, 18 and 20 µM. After 2 min of odorant added, the fluorescence intensity was measured and recorded. The volume of mixed solution in each well was maintained at 250 µL. Each interaction was performed in triplicates.
(§3) GraphPad Prism 7.0 software (GraphPad Software, Inc., La Jolla, CA, USA) was used to calculated and generated the binding constants (K1−NPN) of 1-NPN to SfurOBPs and relative Scatchard plots ([Ban et al., 2003]; [Li et al., 2016]). Dissociation constant (Ki) of each odorant to SfurOBP was computed from the corresponding IC50 value (the half maximal inhibitory concentration), using the following equation: Ki=[IC50]/(1 + [1-NPN]/K1−NPN), where [1-NPN] is the free concentration of 1-NPN and K1−NPN is the dissociation constant of the complex protein/1-NPN.

SfurOBP11 = SfurOBP11 (Sogatella furcifera, UniProt V5T6E3)
Chain of SfurOBP11 (V5T6E3 entry or part of it): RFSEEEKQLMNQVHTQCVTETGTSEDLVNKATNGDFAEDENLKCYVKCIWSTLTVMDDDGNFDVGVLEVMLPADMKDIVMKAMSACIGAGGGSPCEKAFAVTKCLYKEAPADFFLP
Protocol: as §1, §2, §3

SfurOBP2 = SfurOBP2 (Sogatella furcifera, UniProt V5T759)
Chain of SfurOBP2 (V5T759 entry or part of it): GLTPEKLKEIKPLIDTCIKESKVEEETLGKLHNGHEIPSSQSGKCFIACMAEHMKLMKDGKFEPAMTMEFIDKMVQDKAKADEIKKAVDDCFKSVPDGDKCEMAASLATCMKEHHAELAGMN
Protocol: as §1, §2, §3

SfurOBP3 = SfurOBP3 (Sogatella furcifera, UniProt V5T818); conditions: for Fluorescence competitive binding assay, fluorescence intensity: OBP3, three replicate columns
Chain of SfurOBP3 (V5T818 entry or part of it): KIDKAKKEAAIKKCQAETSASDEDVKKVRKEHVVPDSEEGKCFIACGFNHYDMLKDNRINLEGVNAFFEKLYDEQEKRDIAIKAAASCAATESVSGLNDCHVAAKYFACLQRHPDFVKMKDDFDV
Protocol: as §1, §2, §3

## C[C@@H]1CC[C@H]2C(C)(C)[C@H]3C[C@@]12CC[C@@]3(C)O [cedrol]
SfurOBP1
  IC50: > 20 µM
SfurOBP1; ligand concentration 2 (μM)
  Fluorescence competitive binding assay, fluorescence intensity: 6995 and 7876 and 8408
SfurOBP1; ligand concentration 4 (μM)
  Fluorescence competitive binding assay, fluorescence intensity: 8498 and 11154 and 11504
SfurOBP1; ligand concentration 6 (μM)
  Fluorescence competitive binding assay, fluorescence intensity: 10601 and 9220 and 11976
SfurOBP1; ligand concentration 8 (μM)
  Fluorescence competitive binding assay, fluorescence intensity: 9019 and 11150 and 9994
SfurOBP1; ligand concentration 10 (μM)
  Fluorescence competitive binding assay, fluorescence intensity: 10329 and 10734 and 11532
SfurOBP1; ligand concentration 12 (μM)
  Fluorescence competitive binding assay, fluorescence intensity: 12388 and 11952 and 13123
SfurOBP1; ligand concentration 14 (μM)
  Fluorescence competitive binding assay, fluorescence intensity: 12489 and 14285 and 14049
SfurOBP1; ligand concentration 16 (μM)
  Fluorescence competitive binding assay, fluorescence intensity: 13812 and 12078 and 13153
SfurOBP1; ligand concentration 18 (μM)
  Fluorescence competitive binding assay, fluorescence intensity: 15290 and 17034 and 15790
SfurOBP1; ligand concentration 20 (μM)
  Fluorescence competitive binding assay, fluorescence intensity: 14831 and 15054 and 15511
SfurOBP11
  IC50: > 20 µM
SfurOBP11; ligand concentration 2, replicate 1
  Fluorescence intensity, fluorescence competitive binding assay, OBP11: 32664
SfurOBP11; ligand concentration 2, replicate 2
  Fluorescence intensity, fluorescence competitive binding assay, OBP11: 32061
SfurOBP11; ligand concentration 2, replicate 3
  Fluorescence intensity, fluorescence competitive binding assay, OBP11: 32191
SfurOBP11; ligand concentration 4, replicate 1
  Fluorescence intensity, fluorescence competitive binding assay, OBP11: 30812
SfurOBP11; ligand concentration 4, replicate 2
  Fluorescence intensity, fluorescence competitive binding assay, OBP11: 37566
SfurOBP11; ligand concentration 4, replicate 3
  Fluorescence intensity, fluorescence competitive binding assay, OBP11: 35078
SfurOBP11; ligand concentration 6, replicate 1
  Fluorescence intensity, fluorescence competitive binding assay, OBP11: 34551
SfurOBP11; ligand concentration 6, replicate 2
  Fluorescence intensity, fluorescence competitive binding assay, OBP11: 34452
SfurOBP11; ligand concentration 6, replicate 3
  Fluorescence intensity, fluorescence competitive binding assay, OBP11: 36785
SfurOBP11; ligand concentration 8, replicate 1
  Fluorescence intensity, fluorescence competitive binding assay, OBP11: 32906
SfurOBP11; ligand concentration 8, replicate 2
  Fluorescence intensity, fluorescence competitive binding assay, OBP11: 35488
SfurOBP11; ligand concentration 8, replicate 3
  Fluorescence intensity, fluorescence competitive binding assay, OBP11: 34811
SfurOBP11; ligand concentration 10, replicate 1
  Fluorescence intensity, fluorescence competitive binding assay, OBP11: 34631
SfurOBP11; ligand concentration 10, replicate 2
  Fluorescence intensity, fluorescence competitive binding assay, OBP11: 35572
SfurOBP11; ligand concentration 10, replicate 3
  Fluorescence intensity, fluorescence competitive binding assay, OBP11: 36351
SfurOBP11; ligand concentration 12, replicate 1
  Fluorescence intensity, fluorescence competitive binding assay, OBP11: 32777
SfurOBP11; ligand concentration 12, replicate 2
  Fluorescence intensity, fluorescence competitive binding assay, OBP11: 37222
SfurOBP11; ligand concentration 12, replicate 3
  Fluorescence intensity, fluorescence competitive binding assay, OBP11: 35927
SfurOBP11; ligand concentration 14, replicate 1
  Fluorescence intensity, fluorescence competitive binding assay, OBP11: 33134
SfurOBP11; ligand concentration 14, replicate 2
  Fluorescence intensity, fluorescence competitive binding assay, OBP11: 35392
SfurOBP11; ligand concentration 14, replicate 3
  Fluorescence intensity, fluorescence competitive binding assay, OBP11: 35226
SfurOBP11; ligand concentration 16, replicate 1
  Fluorescence intensity, fluorescence competitive binding assay, OBP11: 32933
SfurOBP11; ligand concentration 16, replicate 2
  Fluorescence intensity, fluorescence competitive binding assay, OBP11: 34203
SfurOBP11; ligand concentration 16, replicate 3
  Fluorescence intensity, fluorescence competitive binding assay, OBP11: 33568
SfurOBP11; ligand concentration 18, replicate 1
  Fluorescence intensity, fluorescence competitive binding assay, OBP11: 37284
SfurOBP11; ligand concentration 18, replicate 2
  Fluorescence intensity, fluorescence competitive binding assay, OBP11: 38034
SfurOBP11; ligand concentration 18, replicate 3
  Fluorescence intensity, fluorescence competitive binding assay, OBP11: 36646
SfurOBP11; ligand concentration 20, replicate 1
  Fluorescence intensity, fluorescence competitive binding assay, OBP11: 39273
SfurOBP11; ligand concentration 20, replicate 2
  Fluorescence intensity, fluorescence competitive binding assay, OBP11: 38740
SfurOBP11; ligand concentration 20, replicate 3
  Fluorescence intensity, fluorescence competitive binding assay, OBP11: 33015
SfurOBP2
  IC50: > 20 µM
SfurOBP2; ligand concentration 2 (unit not given), replicate column 1 of 3
  Fluorescence competitive binding assay, OBP2 (raw fluorescence reading): 24497
SfurOBP2; ligand concentration 2 (unit not given), replicate column 2 of 3
  Fluorescence competitive binding assay, OBP2 (raw fluorescence reading): 23498
SfurOBP2; ligand concentration 2 (unit not given), replicate column 3 of 3
  Fluorescence competitive binding assay, OBP2 (raw fluorescence reading): 23591
SfurOBP2; ligand concentration 4 (unit not given), replicate column 1 of 3
  Fluorescence competitive binding assay, OBP2 (raw fluorescence reading): 27085
SfurOBP2; ligand concentration 4 (unit not given), replicate column 2 of 3
  Fluorescence competitive binding assay, OBP2 (raw fluorescence reading): 27496
SfurOBP2; ligand concentration 4 (unit not given), replicate column 3 of 3
  Fluorescence competitive binding assay, OBP2 (raw fluorescence reading): 25040
SfurOBP2; ligand concentration 6 (unit not given), replicate column 1 of 3
  Fluorescence competitive binding assay, OBP2 (raw fluorescence reading): 30107
SfurOBP2; ligand concentration 6 (unit not given), replicate column 2 of 3
  Fluorescence competitive binding assay, OBP2 (raw fluorescence reading): 26969
SfurOBP2; ligand concentration 6 (unit not given), replicate column 3 of 3
  Fluorescence competitive binding assay, OBP2 (raw fluorescence reading): 25579
SfurOBP2; ligand concentration 8 (unit not given), replicate column 1 of 3
  Fluorescence competitive binding assay, OBP2 (raw fluorescence reading): 26802
SfurOBP2; ligand concentration 8 (unit not given), replicate column 2 of 3
  Fluorescence competitive binding assay, OBP2 (raw fluorescence reading): 26446
SfurOBP2; ligand concentration 8 (unit not given), replicate column 3 of 3
  Fluorescence competitive binding assay, OBP2 (raw fluorescence reading): 25979
SfurOBP2; ligand concentration 10 (unit not given), replicate column 1 of 3
  Fluorescence competitive binding assay, OBP2 (raw fluorescence reading): 26972
SfurOBP2; ligand concentration 10 (unit not given), replicate column 2 of 3
  Fluorescence competitive binding assay, OBP2 (raw fluorescence reading): 25158
SfurOBP2; ligand concentration 10 (unit not given), replicate column 3 of 3
  Fluorescence competitive binding assay, OBP2 (raw fluorescence reading): 26522
SfurOBP2; ligand concentration 12 (unit not given), replicate column 1 of 3
  Fluorescence competitive binding assay, OBP2 (raw fluorescence reading): 24638
SfurOBP2; ligand concentration 12 (unit not given), replicate column 2 of 3
  Fluorescence competitive binding assay, OBP2 (raw fluorescence reading): 24959
SfurOBP2; ligand concentration 12 (unit not given), replicate column 3 of 3
  Fluorescence competitive binding assay, OBP2 (raw fluorescence reading): 25011
SfurOBP2; ligand concentration 14 (unit not given), replicate column 1 of 3
  Fluorescence competitive binding assay, OBP2 (raw fluorescence reading): 25754
SfurOBP2; ligand concentration 14 (unit not given), replicate column 2 of 3
  Fluorescence competitive binding assay, OBP2 (raw fluorescence reading): 26325
SfurOBP2; ligand concentration 14 (unit not given), replicate column 3 of 3
  Fluorescence competitive binding assay, OBP2 (raw fluorescence reading): 24806
SfurOBP2; ligand concentration 16 (unit not given), replicate column 1 of 3
  Fluorescence competitive binding assay, OBP2 (raw fluorescence reading): 22837
SfurOBP2; ligand concentration 16 (unit not given), replicate column 2 of 3
  Fluorescence competitive binding assay, OBP2 (raw fluorescence reading): 21773
SfurOBP2; ligand concentration 16 (unit not given), replicate column 3 of 3
  Fluorescence competitive binding assay, OBP2 (raw fluorescence reading): 21108
SfurOBP2; ligand concentration 18 (unit not given), replicate column 1 of 3
  Fluorescence competitive binding assay, OBP2 (raw fluorescence reading): 27379
SfurOBP2; ligand concentration 18 (unit not given), replicate column 2 of 3
  Fluorescence competitive binding assay, OBP2 (raw fluorescence reading): 25169
SfurOBP2; ligand concentration 18 (unit not given), replicate column 3 of 3
  Fluorescence competitive binding assay, OBP2 (raw fluorescence reading): 23516
SfurOBP2; ligand concentration 20 (unit not given), replicate column 1 of 3
  Fluorescence competitive binding assay, OBP2 (raw fluorescence reading): 25091
SfurOBP2; ligand concentration 20 (unit not given), replicate column 2 of 3
  Fluorescence competitive binding assay, OBP2 (raw fluorescence reading): 24420
SfurOBP2; ligand concentration 20 (unit not given), replicate column 3 of 3
  Fluorescence competitive binding assay, OBP2 (raw fluorescence reading): 23245
SfurOBP3
  IC50: > 20 µM
SfurOBP3; ligand concentration 2
  Fluorescence competitive binding assay, fluorescence intensity: 55754 and 49842 and 56462
SfurOBP3; ligand concentration 4
  Fluorescence competitive binding assay, fluorescence intensity: 68851 and 68657 and 83563
SfurOBP3; ligand concentration 6
  Fluorescence competitive binding assay, fluorescence intensity: 77285 and 86181 and 100023
SfurOBP3; ligand concentration 8
  Fluorescence competitive binding assay, fluorescence intensity: 86444 and 86480 and 86528
SfurOBP3; ligand concentration 10
  Fluorescence competitive binding assay, fluorescence intensity: 98647 and 101699 and 124352
SfurOBP3; ligand concentration 12
  Fluorescence competitive binding assay, fluorescence intensity: 107439 and 105795 and 90567
SfurOBP3; ligand concentration 14
  Fluorescence competitive binding assay, fluorescence intensity: 124768 and 101594 and 116276
SfurOBP3; ligand concentration 16
  Fluorescence competitive binding assay, fluorescence intensity: 81951 and 95706 and 104699
SfurOBP3; ligand concentration 18
  Fluorescence competitive binding assay, fluorescence intensity: 130597 and 114825 and 98253
SfurOBP3; ligand concentration 20
  Fluorescence competitive binding assay, fluorescence intensity: 111183 and 106493 and 98789
